Test results as given in patent publication US9518038B2, “Condensation product of theanine derivative and carboxylic acid coumarin derivative, its intermediate, preparation method and use thereof” (SHANDONG YINGDONG YINGHAO BIOTECHNOLOGY, INC., priority 2012, dated 2016).

Tests used:
[1] = tested on: human gastric cancer cells BGC-823; assay: MTT growth inhibition, BGC-823 cells; type: cell-based; settings: 72 h after treatment, read-out: Drug concentration (IC50) at which 50% cancer cells survived
Source text: (§1) Cell lines and cell culture: human lung cancer cells A549 and H460, human breast cancer cells MCF-7 and MDA-MB-231, human gastric cancer cells BGC-823, human prostate cancer cells PC-3, human chronic leukemia cells K562, human lymphoma cells U937, human liver cancer cells SMMC7721 and HepG2, human colon cancer cells HT29, human pancreatic cancer cells PANC-1 and BxPC3, human cervical cancer Hela cell lines, human brain tumor cells Daoy, human neuroma cells D54 and human oral epidermoid cancer cells KBV200 line with strong drug resistance, mouse melanoma cells B16, and highly metastatic Lewis lung cancer cell lines were purchased from American Type Culture Collection of the U.S. These cells were cultured with DMEM and RPMI-1640 culture solutions separately.
(§2) The procedure was as follows:
(§3) (1) 0.25% trypsin was used to digest cancer cells in a logarithmic growth phase to prepare a single-cell suspension, the concentration of cells was adjusted to 5×10^4/mL, and the adjusted suspension was inoculated into a 96-well culture plate with 100 μl per well;
(§4) (2) The culture plate was transferred into a 37° C. incubator with a saturated humidity and 5% of CO2 and cultured for 24 h; the compounds and the intermediates thereof obtained in embodiments 1-7 and the compound as represented by formula (IIIa) or the positive control anti-cancer drug with the concentration of 1-1000 μM/L were added to enable the final concentration to be 0.1-1500 μM/L. Control wells (only added with 200 μl of cell suspension) and drug-free blank control wells (containing the solvent of 0.01% DMSO) were set, each group included 8 wells, and the plate was placed into the 37° C. incubator with saturated humidity and 5% of CO2 for culturing;
(§5) (3) The 96-well plate was taken out at 48 h and 72 h after dosing, the original culture medium was carefully removed by suction, 100 μl of serum-free DMEM culture medium and 10 μl of MTT (5 mg/mL) solution were added in each well. The plate was continuously cultured for another 4 h and then the culture was terminated;
(§6) (4) The supernatant in the wells was carefully removed by suction, each well was added with 150 μl of DMSO and shaked at room temperature for 10-15 min to fully dissolve crystals.
(§7) (5) Colorimetric analysis: the wavelength was selected as 570 nm, the light absorbance (A value) of each well was determined on the microplate reader and the results were recorded; the experiment was repeated for three times;
(§8) (6) the experimental results were calculated according to the following formula: relative survival rate=(A value of each experimental group/A value of cell control group)×100%
(§9) Calculation of median-effect concentration (IC50, namely the drug concentration at which the inhibition rate is 50%, also known as half inhibitory concentration):
(§10) IC50 of the detected component was calculated by using a regression equation.

[2] = tested on: human prostate cancer cells PC-3; assay: MTT growth inhibition, PC-3 cells; type: cell-based; settings: 72 h after treatment, read-out: Drug concentration (IC50) at which 50% cancer cells survived
Source text: as §1, §2, §3, §4, §5, §6, §7, §8, §9, §10

[3] = tested on: human pancreatic cancer cells PANC-1; assay: MTT growth inhibition, PANC-1 cells; type: cell-based; settings: 72 h after treatment, read-out: Drug concentration (IC50) at which 50% cancer cells survived
Source text: as §1, §2, §3, §4, §5, §6, §7, §8, §9, §10

[4] = tested on: human liver cancer cells SMMC7721; assay: MTT growth inhibition, SMMC7721 cells; type: cell-based; settings: SMMC-7721, S-7721 (SMMC7721), 72 h after treatment, read-out: Drug concentration (IC50) at which 50% cancer cells survived
Source text: as §1, §2, §3, §4, §5, §6, §7, §8, §9, §10

mouse melanoma cells B16 = assay: MTT growth inhibition, B16 cells; type: cell-based; settings: Mus musculus, 72 h after treatment, read-out: Drug concentration (IC50) at which 50% cancer cells survived
Source text: as §1, §2, §3, §4, §5, §6, §7, §8, §9, §10

[5] = tested on: human pancreatic cancer cells BxPC3; assay: MTT growth inhibition, BxPc3 cells; type: cell-based; settings: Homo sapiens, BXPC-3, 72 h after treatment, read-out: Drug concentration (IC50) at which 50% cancer cells survived
Source text: as §1, §2, §3, §4, §5, §6, §7, §8, §9, §10

[6] = tested on: human cervical cancer cells Hela xenograft; assay: In-vivo growth of Hela xenografts in nude mice; design: species or system BALB/c nude mice; settings: Mus musculus, ip, vs DMSO solvent control, read-out: Curative effect (inhibition rate %) of tumor weight; for inhibition in vivo at 60 mg/kg: 60 mg/kg intraperitoneal once a day; for inhibition in vivo at 90 mg/kg: 90 mg/kg intraperitoneal once a day
Description: RPMI1640 and DMEM culture solutions: Hyclone Company; inactivated fetal bovine serum: Hyclone Company, preserved at −20° C.; trypsin: Amersco Company; and 0.4% trypan blue: Sigma Company;
(3) Observation of growth of tumors in nude mice: the activities (including food intake, traits of urine and stool, mental state and the like) of the nude mice and the tumor growth time and growth situation of the transplanted tumors were observed every day, the body weight and the size of the tumors were measured once every 2-3 days. The long diameter a and the short diameter b (mm) of each tumor were measured by a vernier caliper to calculate the volume, wherein the volume V=π1/2·ab^2 (mm^3);
(4) sacrifice of animals: the mice were anesthetized and photoed after treatment experiments; the nude mice were sacrificed by breaking neck, the tumor tissues were stripped under sterile conditions and the weight of the tumors was weighed; and the effects of the drugs on pathology and toxicity of the various organs and tissues were detected.

Cyclin D1 = assay: Western Blotting, Cyclin D1 level; type: cell-based; settings: human liver cancer cells, Lewis lung cancer cells and other cancer cell lines and tumor tissues, read-out: Effective concentration (IC50) for inhibition of Cyclin D1
Source text: (§11) Antibodies: primary antibodies of VEGFR, EGFR, c-Met, K-Ras, H-Ras, Akt, NF-κB, Cyclin D1, ER-alpha, Dvl-1, Dvl-2, Dvl-3, MMP-9, MMP2, β-catenin, Bcl-2, Bax, p53, p21, E-cadherin and Caspase3 protein, purchased from American Cell Signaling Technology Company and Santa Cruz Technology Company; and H3 acetylation, H4 acetylation and HDAC (HDAC3, HDAC4 and the like) Antibody Sample Kits, purchased from Cell Signaling Technology Company of the U.S.
(§12) (3) polyacrylamide gel electrophoresis (SDS-PAGE): an equal amount of protein lysate sample was used to separate protein, film transfer, and blocking, treated with appropriate primary antibodies and secondary antibodies in sequence, and the film was washed, then the color was developed with ECL kit, and a blot protein band was detected by exposure of an X-ray film; and a Gel-Pro Analyzer was used for quantitative analysis of gray degree, optical density value of the control group and the drug treatment group in various concentration were respectively compared with that of internal reference, the obtained ratios were respectively compared with the control group, and the protein expression level was semi-quantified.

K-Ras = assay: Western Blotting, K-Ras level; type: cell-based; settings: human liver cancer cells, Lewis lung cancer cells and other cancer cell lines and tumor tissues, read-out: Effective concentration (IC50) for inhibition of K-Ras
Source text: as §11, §12

HDAC3 = assay: Western Blotting, HDAC3 level; type: cell-based; settings: human liver cancer cells, Lewis lung cancer cells and other cancer cell lines and tumor tissues, read-out: Effective concentration (IC50) for inhibition of HDAC3
Source text: as §11, §12

HDAC4 = assay: Western Blotting, HDAC4 level; type: cell-based; settings: human liver cancer cells, Lewis lung cancer cells and other cancer cell lines and tumor tissues, read-out: Effective concentration (IC50) for inhibition of HDAC4
Source text: as §11, §12

SMILES | IC50 [1] [µM] | IC50 [2] [µM] | IC50 [3] [µM] | IC50 [4] [µM] | IC50 (mouse melanoma cells B16) [µM] | IC50 [5] [µM] | inhibition in vivo at 60 mg/kg [6] [%] | inhibition in vivo at 90 mg/kg [6] [%] | IC50 (Cyclin D1) [µM] | IC50 (K-Ras) [µM] | IC50 (HDAC3) [µM] | IC50 (HDAC4) [µM]
CCNC(=O)CCC(NC(=O)c1cc2cc(F)ccc2oc1=O)C(=O)OCC (stereo in doubt) [Compound Ie, (R)-2-(6-F-2-oxo-2H-benzopyran-3-carboxamido)-5-ethylamino-5-oxo-pentanoic acid ethyl ester] | 143 | 127 | 72 | 61 | 230 | 260 | 60.7 | 70.5 | < 160 | < 60 | < 55 | < 50
CCNC(=O)CCC(NC(=O)c1cc2cc([N+](=O)[O-])ccc2oc1=O)C(=O)OCC (stereo in doubt) [Compound If, (R)-2-(6-nitro-2-oxo-2H-benzopyran-3-carboxamido)-5-ethylamino-5-oxo-pentanoic acid ethyl ester] | 115 | 171 | 77 | 61 | 280 | 180 | 50.9 | 66.8 | < 90 | < 55 | < 55 | < 45
CCNC(=O)CC[C@H](N)C(=O)OC [Compound IIa, theanine methyl ester] | 310 | 350 | 280 | 230 | 450 | 600 | 38.7 | 38.7 | – | – | – | –
CCNC(=O)CC[C@H](N)C(=O)OCC [Compound IIb, theanine ethyl ester] | 600 | 400 | 400 | 400 | 500 | 300 | 41.7 | 41.7 | – | – | – | –
CCNC(=O)CCC(NC(=O)c1cc2ccccc2oc1=O)C(=O)OC (stereo not shown) [Compound Ia, methyl 5-ethylamino-5-oxo-2-(2-oxo-2H-benzopyran-3-carboxamido)pentanoate] | 123 | 146 | 67 ± 30 | 75 ± 30 | 145 | 350 | 54.7 | 62.9 | < 125 | < 85 | < 75 | < 65
CCNC(=O)CCC(NC(=O)c1cc2ccccc2oc1=O)C(=O)OCC (stereo not shown) [Compound Ib, ethyl 5-ethylamino-5-oxo-2-(2-oxo-2H-benzopyran-3-carboxamido)pentanoate] | 127 | 125 | 65 | 17 | 110 | 105 | 53.9 | 63.8 | < 120 | < 75 | < 70 | < 60
CCNC(=O)CC[C@@H](NC(=O)c1cc2cc(Cl)ccc2oc1=O)C(=O)OCC [Compound Ic, (R)-2-(6-CI-2-oxo-2H-benzopyran-3-carboxamido)-5-ethylamino-5-oxo-pentanoic acid ethyl ester] | 66 | 105 | 54 | 75 | 125 | 89 | 53.7 | 65.8 | < 100 | < 65 | < 65 | < 50
CCNC(=O)CC[C@@H](NC(=O)c1cc2cc(Br)ccc2oc1=O)C(=O)OCC [Compound Id, (R)-2-(6-Br-2-oxo-2H-benzopyran-3-carboxamido)-5-ethylamino-5-oxo-pentanoic acid ethyl ester] | 65 | 110 | 55 | 65 | 120 | 116 | 57.9 | 71.9 | < 100 | < 60 | < 65 | < 50
CCNC(=O)CC[C@@H](NC(=O)c1cc2cc(Cl)cc(Cl)c2oc1=O)C(=O)OCC [Compound Ig, (R)-2-(6,8-dichloro-2-oxo-2H-benzopyran-3-carboxamido)-5-ethylamino-5-oxo-pentanoic ethyl ester] | 60 | 45 | 71 | 78 | 125 | 119 | 56.7 | 70.3 | < 70 | < 65 | < 65 | < 50
CCNC(=O)CC[C@@H](NC(=O)c1cc2cc(Br)cc(Br)c2oc1=O)C(=O)OCC [Compound Ih, (R)-2-(6,8-dibromo-2-oxo-2H-benzopyran-3-carboxamido)-5-ethylamino-5-oxo-pentanoic ethyl ester] | 85 | 87 | 78 | 86 | 146 | 128 | 62.9 | 72.6 | < 70 | < 65 | < 65 | < 50
